These results are taken from patent publication US8742123B2, “HIV integrase inhibitors from pyridoxine” (TaiMed Biologics, Inc., priority 2008, dated 2014).

A short description of data set [1]: human liver microsome stability. The format is in vitro ADME. As to conditions: pH 7.4, 1 μM compound. The procedure: After pre-incubation, the assay was started by the addition of 1 μM of compound. Samples were taken after 0, 15, 30, 60, 90 and 120 minutes of incubation (Fisher M B, Drug Metabolism and Disposition, 2000, 28, 560-566). GraphPad Prism software was used for data analysis. The results, showing that the compounds of the invention are metabolically stable in Human liver microsomes, are provided in Table 7 below.
In general terms: Liver microsomes are a subcellular fraction often used to study metabolism.

Data set [2] concerns the target T1, recombinant HIV-1 integrase (Human immunodeficiency virus type 1 group M subtype B, UniProt P12497).
T1 construct: Recombinant integrase (250 ng/well) was assembled onto the immobilized donor oligonucleotide
Description: integrase strand transfer assay. The format is biochemical. As to conditions: compounds added after assembly, 10% DMSO, read-out: ST IC50. The procedure: IC50 was determined for the compounds of the inventions based on data generated in strand transfer assays. The IC50 is a measure of the ability of the compounds tested to inhibit the integration of 3′-processed oligonucleotides by recombinant HIV-1 integrase.
Strand transfer assays were performed essentially as described in Hazuda, D. J.; Felock, P.; Hastings, J. C.; Pramanik, B.; Wolfe, A. J. Virol. 1997, 71, 7005-7011). Donor DNA (1.5 pmol/well), biotinylated on the 5′ end of the strand processed by integrase, was immobilized onto streptavidin-coated microtiter plates. Recombinant integrase (250 ng/well) was assembled onto the immobilized donor oligonucleotide in reaction buffer (20 mM Hepes, pH 7.6, 5 mM B-mercaptoethanol, 50 ug/mL bovine serum albumin) containing 30 mM MnCl2. Excess enzyme was removed, and the complexes were washed extensively prior to the addition of the target DNA substrate. The target DNA (0.75 pmoles/well) substrate was labeled on each 3′ end with FITC. After strand transfer, the FITC-labeled products were detected using an anti-FITC antibody conjugated with alkaline phosphatase (Roche) and a chemiluminescent substrate (Tropix CSPD with Sapphire II enhancer, Applied Biosystems). The assay was performed in a final concentration of 10% DMSO. To specifically evaluate inhibition of strand transfer, compounds were added after assembly, just prior to the addition of the target DNA.
The results of the integrase strand transfer assay are reported as IC50 values. IC50 values were determined using a sigmoidal dose-response equation. The formula used for calculating % inhibition was: % Inhibition=[1-(sample counts/average of positive control)]*100. […] Using GraphPad Prism or ActivityBase (IDBS) software IC50 was determined using following sigmoidal dose-response equation: Y=(A+((B−A)/(1+((C/X)^D))))

A further data set relates to wild type NL-4.3. Briefly: multi-cycle infection assay in MT-4 cells (MTT cytoprotection). The format is cell-based, HIV-1. As to conditions: Human immunodeficiency virus 1, MT4, 144 h, read-out: EC50 (nM) multi-cycle. The procedure: The antiviral efficacies of the integrase inhibitor compounds of the invention were evaluated based on EC50 measures obtained from two different in vitro HIV infection assay using cultured MT-4 cells: (1) a multi-cycle infection where cells were infected with wild type NL-4.3) and (2) a single-cycle infection where the cells were infected with a luciferase-bearing, envelope defective (env-) NL-4.3 virus pseudotyped with HIV-1 env (HXBc2.
The incubation period for the multi-cycle infection assay was 6 days. Cell viability (cytoprotection) and EC50 were determined using the colorimetric MTT assay (A. J. Japour et al, Antimicrobial Agents and Chemotherapy, 37, 1095-1101, 1993 and R. Pauwels et al. Journal of Virological Methods, 20, 309-321, 1988).

The subject of another data set is HIV-1 isolate 94US33931N. Briefly: acute infection assay in PHA-stimulated PBMCs, supernatant RT activity. The format is cell-based. As to conditions: Human immunodeficiency virus 1, PBMC, 144 h, 6 day incubation. The procedure:
(§1) Acute infection assays using fresh human phytohemagglutinin (PHA)-stimulated peripheral blood mononuclear cells (PBMCs) were carried out. PBMCs were stimulated with IL-2 and infected with one of two wild-type drug-sensitive clinical HIV-1 isolates. The strains HIV-1 used for the infections, 91US005 (primary R5 strain of HIV-1) and 94US33931N, are both Group M, Subtype B viruses. Antiviral activity was determined as a reduction in supernatent reverse transcriptase (RT) activity after a 6 day incubation.

In the next data set the test system is HIV-1 isolate 91US005. The description is as above. As to conditions: Human immunodeficiency virus 1, PBMC, 144 h, HIV-1 isolate 91US005, 6 day incubation. The format is cell-based. The procedure: as §1
The nature of data set [3]: pharmacokinetic (PK) profile in rats. The conditions noted are these: female Sprague-Dawley rats, 5 mg/kg intravenously, 50 mg/kg orally, plasma LC/MS/MS. The format is in vivo. The procedure: Female Sprague-Dawley rats were randomly selected and assigned to two groups. A group of 13 rats were administered 5 mg/kg of compound 2 intravenously. A second group of 8 rats were administered 50 mg/kg of compound 2 orally. Following the dosing, blood was collected at 7 different time points. Plasma samples obtained from the blood samples were analyzed by LC/MS/MS and the bioavailability of compound 2 was determined.

Data set [4] in a line: protein binding by Rapid Equilibrium Dialysis (RED), 10% FBS-RPMI. The format is in vitro ADME. As to conditions: bovine, 37° C. The procedure:
(§2) Protein binding was tested by Rapid Equilibrium Dialysis (RED) method (The RED (Rapid equilibrium Dialysis) Device inserts instruction manual. Pierce, Rockford Ill.). […] The red chamber was loaded with 0.3 mL of samples containing compounds. The white chamber contained 0.5 mL of D-PBS buffer only. The plate was incubated at 37° C. while shaking at 150 rpm for 5 hours. Aliquots from both chambers were analyzed by LC/MS/MS. The multi-cycle antiviral activity in the absence and presence of human serum was determined by p24 ELISA measurement after 6 days of NL4.3 virus infection.

Data set [5] in a line: protein binding by Rapid Equilibrium Dialysis (RED), human serum. The format is in vitro ADME. As to conditions: 37° C., 100% HS. The procedure:
as §2
Background: In equilibrium dialysis only unbound substance equilibrates across the membrane.

The target of the next data set is T2, CYP3A4 (Homo sapiens, UniProt P08684).
T2 construct: the incubation medium contained 0.3 mg/mL human liver microsomes; from tissue; host or cells: human liver microsomes
Briefly: human CYP inhibition in human liver microsomes. As to conditions: CYP3A4 (printed CYP34A). The format is in vitro ADME. The procedure: For the human CYP inhibition experiments, the incubation medium contained 0.3 mg/mL human liver microsomes, 100 mM phosphate buffer pH 7.4, 5 mM MgCl2, 1 mM EDTA. The respective substrates for CYP3A4, CYP2C9 and CYP2D6 were added at various concentrations in the presence or absence of the compounds tested. After pre-incubation, the reaction was initiated by the addition of NADPH at final concentration 1 mM. Incubation times were 10, 60 and 15 minutes for CYP3A4, CYP2C9 and CYP2D6, respectively (Walsky R L and Obach R S., Drug Metabolism and Disposition, 2004, 32, 647-660). GraphPad Prism software was used for data analysis.

A further data set concerns NL4.3 virus. Description: multi-cycle antiviral activity in absence and presence of human serum, p24 ELISA. The conditions noted are these: Human immunodeficiency virus 1, 144 h. The format is cell-based, HIV-1. The procedure:
as §2

The mark [6] stands for this setting: human liver microsomes, 1 mM NADPH and 1 mM UDPGA, read-out: Half-life in HLM (hrs) NADPH/UDPGA (converted).
Where [7] appears, read: human liver microsomes, 1 mM NADPH, read-out: Half-life in HLM (hrs) NADPH (converted).
[8] abbreviates: human liver microsomes, 1 mM UDPGA, read-out: Half-life in HLM (hrs) UDPGA (converted).
The mark [9] stands for this setting: MT-4 cells, wild type NL-4.3, 6 days, MTT.

Read-outs that look alike come from different tables or passages of the source. Bounds are passed on as bounds.

Broadly, the IC50 is the concentration needed to halve the response being measured. One may read the EC50 as the concentration that produces a half-maximal response. In general, fraction unbound refers to the share of the substance not bound to proteins or other matrix. By Ki is commonly meant a dissociation constant, usually derived from enzyme kinetics or from competition with a known ligand.

T2 sequence (P08684 whole entry): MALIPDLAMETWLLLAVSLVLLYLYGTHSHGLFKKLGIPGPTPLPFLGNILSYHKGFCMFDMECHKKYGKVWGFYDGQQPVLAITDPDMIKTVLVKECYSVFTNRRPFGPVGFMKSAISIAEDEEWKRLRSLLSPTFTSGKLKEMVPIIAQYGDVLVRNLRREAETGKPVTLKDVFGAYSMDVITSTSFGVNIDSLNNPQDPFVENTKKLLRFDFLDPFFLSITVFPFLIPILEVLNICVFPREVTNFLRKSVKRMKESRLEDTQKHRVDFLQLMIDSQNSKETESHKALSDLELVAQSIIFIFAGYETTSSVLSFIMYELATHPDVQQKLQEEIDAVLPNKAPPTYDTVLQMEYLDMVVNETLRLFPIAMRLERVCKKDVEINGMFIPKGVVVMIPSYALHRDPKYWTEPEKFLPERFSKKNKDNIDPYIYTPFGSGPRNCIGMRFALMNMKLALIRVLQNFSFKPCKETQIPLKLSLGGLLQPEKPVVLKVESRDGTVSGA

As for `O=C(NCc1ccc(F)cc1)c1cnc(C(=O)NO)c(O)c1CO` [Example 2, N^5-(4-fluorobenzyl)-N^2,3-dihydroxy-4-(hydroxymethyl)pyridine-2,5-dicarboxamide], the figures for the half-life at 1 μM in data set [1] (setting [6]), in data set [1] (setting [7]) and in [1] (setting [8]) were 5.9 h, 5 h and 16 h, respectively. Moreover, the IC50 in [2] stood at 303 nM. Further, the values for the concentration for a half-maximal effect (EC50) in the data set on wild type NL-4.3 (setting [9]), with HIV-1 isolate 94US33931N and in the data set with HIV-1 isolate 91US005 were 358 nM, 123 nM and 76 nM, respectively. Also, the “adsorption / PK profile (FIG. 1)” value in data set [3] was “high adsorption”. Moreover, the fraction unbound at 5 hours, 1 uM was 0.681 in data set [4] (10% FBS-RPMI) and 0.155 in data set [5] (human serum (100%)).

For `O=C(NCc1ccc2c(c1)OCO2)c1cnc(C(=O)NOCc2ccccc2)c(OCc2ccccc2)c1CO` [Example 3, N^5-(benzo[d][1,3]dioxol-5-ylmethyl)-N2,3-bis(benzyloxy)-4-(hydroxymethyl)pyridine-2,5-dicarboxamide], the half-life at 1 μM in data set [1] (setting [6]) is 1.95 h; in data set [1] (setting [7]) it was 6.18 h; in data set [1] (setting [8]), 3.8 h. The compound further showed a Ki on CYP3A4 of 587000 nM. For the same compound, the EC50 with wild type NL-4.3 (setting [9]) is > 10000 nM; in the data set on HIV-1 isolate 94US33931N it was 30 nM; with HIV-1 isolate 91US005 it was 93 nM.

On to `O=C(NCc1ccc(F)c(Cl)c1)c1cnc(C(=O)NO)c(O)c1CO` [Example 14, N^5-(3-chloro-4-fluorobenzyl)-N2,3-dihydroxy-4-(hydroxymethyl)pyridine-2,5-dicarboxamide], for which the IC50 in data set [2] came out at 27 nM. The EC50 in the data set with wild type NL-4.3 (setting [9]) was determined as 123 nM.

In the case of `O=C(NO)c1ncc(COCc2ccccc2)c(CO)c1O` [Example 18, 5-(Benzyloxymethyl)-N,3-dihydroxy-4-(hydroxymethyl)picolinamide], in data set [2], the IC50 was found to be 88 nM. In the data set with wild type NL-4.3 (setting [9]), the concentration for a half-maximal effect (EC50) came to 86 nM.

In the case of `O=C(Nc1cnc(C(=O)NO)c(O)c1CO)c1ccc(F)cc1` [Example 23, 5-(4-Fluoro-benzoylamino)-3-hydroxy-4-hydroxymethyl-pyridine-2-carboxylic Acid Hydroxyamide], in the data set with wild type NL-4.3 (setting [9]), the concentration for a half-maximal effect (EC50) was 6300 nM.

`O=C(NO)c1ncc(CN(Cc2ccccc2)c2ccc(F)cc2)c(CO)c1O` [Example 25, 5-{[Benzyl-(4-fluoro-phenyl)-amino]-methyl}-3-hydroxy-4-hydroxymethyl-pyridine-2-carboxylic Acid Hydroxyamide]: the half-maximal effective concentration (EC50) in the data set on wild type NL-4.3 (setting [9]) came out at 175 nM.

`O=C(Nc1ccc(F)cc1)Nc1cnc(C(=O)NO)c(O)c1CO` [Example 27, 5-[3-(4-Fluoro-phenyl)-ureido]-3-hydroxy-4-hydroxymethyl-pyridine-2-carboxylic Acid Hydroxyamide]: the 50% effective concentration (EC50) with wild type NL-4.3 (setting [9]) came out at 1100 nM.

As to `O=C(NO)c1ncc(COc2ccc(F)cc2)c(CO)c1O` [Example 28, 5-(4-Fluoro-phenoxymethyl)-3-hydroxy-4-hydroxymethyl-pyridine-2-carboxylic Acid Hydroxyamide], the concentration giving a half-maximal response (EC50) in the data set with wild type NL-4.3 (setting [9]) amounted to 186 nM.

As for `COC(=O)N(Cc1ccc(F)cc1)Cc1cnc(C(=O)NO)c(O)c1CO` [Example 65, (4-Fluoro-benzyl)-(5-hydroxy-6-hydroxycarbamoyl-4-hydroxymethyl-pyridin-3-ylmethyl)-carbamic Acid Methyl Ester], in the data set on wild type NL-4.3 (setting [9]), the concentration for a half-maximal effect (EC50) is > 10000 nM.

Consider `O=C(NO)c1ncc(CCc2ccc(F)cc2)c(CO)c1O` [Example 67, 5-[2-(4-Fluoro-phenyl)-ethyl]-3-hydroxy-4-hydroxymethyl-pyridine-2-carboxylic Acid Hydroxyamide], for which, in the data set on wild type NL-4.3 (setting [9]), the EC50 worked out at 235 nM.

For `O=C(NO)c1ncc(CS(=O)(=O)Cc2ccc(F)cc2)c(CO)c1O` [Example 71, 5-(4-Fluoro-phenylmethanesulfonylmethyl)-3-hydroxy-4-hydroxymethyl-pyridine-2-carboxylic Acid Hydroxyamide], the EC50 in the data set with wild type NL-4.3 (setting [9]) was 4.3 nM.

As for `Cc1c(C(=O)NCc2ccc(F)c(Cl)c2)cnc(C(=O)NO)c1O` [Example 74, 3-Hydroxy-4-methyl-pyridine-2,5-dicarboxylic Acid 5-(3-chloro-4-fluoro-benzylamide)2-hydroxyamide], the EC50 with wild type NL-4.3 (setting [9]) was 267 nM.

Consider `Cc1nnc(C(=O)NC(C)(C)c2nc(C(=O)NCc3ccc(F)cc3)c(O)c(=O)n2C)o1` [Raltegravir, reference compound], for which the half-life at 1 μM in [1] (microsomes, 1 mM NADPH and 1 mM UDPGA, read-out: Half-life in HLM (hrs) NADPH/UDPGA (converted)) is 11 h; in data set [1] (microsomes, 1 mM NADPH, read-out: Half-life in HLM (hrs) NADPH (converted)), 19.7 h; in [1] (microsomes, 1 mM UDPGA, read-out: Half-life in HLM (hrs) UDPGA (converted)), 7.03 h. Besides, the results for the EC50 with wild type NL-4.3, in the data set on NL4.3 virus (read-out: EC50 (uM) 10% FBS) and in the data set on NL4.3 virus (read-out: EC50 (uM) 10% FBS + 40% HS) were 20 nM, 0.047 µM and 0.064 µM, respectively. The fraction unbound at 5 hours, 1 uM in data set [4] (serum) was 0.653; in data set [5] (serum), 0.133.

As for `Cc1cn([C@H]2C[C@H](N=[N+]=[N-])[C@@H](CO)O2)c(=O)[nH]c1=O` [Retrovir (AZT), 3-Azido-3-deoxythymine (Zidovudine), reference compound], the EC50 in the data set on HIV-1 isolate 94US33931N came to 3 nM; in the data set on HIV-1 isolate 91US005, 6 nM.
